Experimental findings from US10448639B2, “Fungicidal pyrazoles” (FMC CORPORATION, priority 2009, dated 2019) are described below.

The subject of one test is Botrytis cinerea. Kind of test: Test B: tomato Botrytis, preventive spray on tomato seedlings, visual disease rating.
For another test, the system named is Septoria tritici. Kind of test: Test G: wheat leaf blotch, preventive spray on wheat seedlings, visual disease rating.
The next test relates to Alternaria solani. Kind of test: Test C: tomato early blight, preventive spray on tomato seedlings, visual disease rating.
Another test relates to Septoria nodorum. Kind of test: Test F: Septoria glume blotch, preventive spray on wheat seedlings, visual disease rating.
The test system of test [1] is Erysiphe graminis f sp. tritici. As to the kind of experiment: Test J: wheat powdery mildew, preventive spray on wheat seedlings, visual disease rating.
Test [2] relates to Puccinia recondita f. sp. tritici. Kind of test: Test H: wheat leaf rust, curative spray on inoculated wheat seedlings, visual disease rating.
Test [3] shares this test system. As to the kind of experiment: Test I: wheat leaf rust, preventive spray on wheat seedlings, visual disease rating.
Setting [4] is: tomato Botrytis, preventive spray, 100 = 100% disease control, 0 = no control.
Setting [5] is: wheat leaf blotch, preventive spray, 100 = 100% disease control, 0 = no control.
Where [6] appears, read: tomato early blight, preventive spray, 100 = 100% disease control, 0 = no control.
[7] abbreviates: Septoria glume blotch on wheat, preventive spray, 100 = 100% disease control, 0 = no control.
Where [8] appears, read: wheat powdery mildew, preventive spray, 100 = 100% disease control, 0 = no control.
The mark [9] stands for this setting: wheat leaf rust, curative spray, 100 = 100% disease control, 0 = no control.
Where [10] appears, read: wheat leaf rust, preventive spray, 100 = 100% disease control, 0 = no control.
Where [11] appears, read: tomato Botrytis, 100 = 100% disease control, 0 = no control relative to controls.
Setting [12] is: wheat leaf blotch, 100 = 100% disease control, 0 = no control relative to controls.
Where [13] appears, read: tomato early blight, 100 = 100% disease control, 0 = no control relative to controls.
Where [14] appears, read: Septoria glume blotch, 100 = 100% disease control, 0 = no control relative to controls.
The mark [15] stands for this setting: wheat powdery mildew, 100 = 100% disease control, 0 = no control relative to controls.
Setting [16] is: wheat leaf rust, curative, 100 = 100% disease control, 0 = no control relative to controls.
[17] abbreviates: wheat leaf rust, preventive, 100 = 100% disease control, 0 = no control relative to controls.

In the case of `COc1ccc(Nc2c(-c3c(F)cc(C#N)cc3F)c(C)nn2C)cc1` [compound 126], the “Test B rating (% disease control)” value with Botrytis cinerea (setting [4]) was 99%. In the test on Septoria tritici (setting [5]), the “Test G rating (% disease control)” value came out at 100%. Besides, the “Test C rating (% disease control)” value in the test on Alternaria solani (setting [6]) is 96%. Moreover, the “Test F rating (% disease control)” value in the test with Septoria nodorum (setting [7]) stood at 60%. Moreover, the “Test J rating (% disease control)” value in test [1] (setting [8]) worked out at 0%. For the same compound, the “Test H rating (% disease control)” value in test [2] (setting [9]) was 0%. In addition, the “Test I rating (% disease control)” value in test [3] (setting [10]) was found to be 94%.

For the compound `Cc1nn(C)c(Oc2ccc(C#N)cc2F)c1-c1ccc(F)cc1Cl` [Compound 118, 4-[[4-(2-chloro-4-fluorophenyl)-1,3-dimethyl-1H-pyrazol-5-yl]oxy]-3-fluorobenzonitrile], the pest or weed control at 200 µg/mL in the test on Botrytis cinerea (Botrytis cinerea, in Solanum lycopersicum, 120 h, read-out: Test B rating (% disease control)) amounted to 100%; in the test on Septoria tritici (Zymoseptoria tritici, in Triticum aestivum, 504 h, read-out: Test G rating (% disease control)), 100%; with Alternaria solani (Alternaria solani, in Solanum lycopersicum, 168 h, read-out: Test C rating (% disease control)), 100%; in the test with Septoria nodorum (Parastagonospora nodorum, in Triticum aestivum, 192 h, read-out: Test F rating (% disease control)) it was 98%; in test [1] (Blumeria graminis, in Triticum aestivum, 192 h, read-out: Test J rating (% disease control)) it was 99%; in test [2] (144 h, read-out: Test H rating (% disease control)), 99%. Moreover, the pest or weed control at 200 µg/mL in test [3] (192 h, read-out: Test I rating (% disease control)) was determined as 100%.

For the compound `Cc1nn(C)c(Nc2ccc(F)cc2Cl)c1-c1ccc(F)cc1F` [compound 207], the “Test B rating (% disease control)” value in the test on Botrytis cinerea (setting [11]) worked out at 100%. Moreover, the “Test G rating (% disease control)” value with Septoria tritici (setting [12]) came out at 100%. Also, the “Test C rating (% disease control)” value with Alternaria solani (setting [13]) is reported as 93%. Besides, the “Test F rating (% disease control)” value with Septoria nodorum (setting [14]) came out at 64%. In addition, the “Test J rating (% disease control)” value in test [1] (setting [15]) is 100%. The “Test H rating (% disease control)” value in test [2] (setting [16]) amounted to 0%. In addition, in test [3] (setting [17]), the “Test I rating (% disease control)” value was determined as 99%.

For `Cc1nn(C)c(Nc2ccc(F)cc2F)c1-c1c(F)cc(OS(=O)(=O)C(F)(F)F)cc1F` [compound 105], the “Test B rating (% disease control)” value in the test with Botrytis cinerea (setting [4]) is given as 23%. Besides, the “Test G rating (% disease control)” value in the test with Septoria tritici (setting [5]) came out at 73%. The “Test C rating (% disease control)” value in the test with Alternaria solani (setting [6]) amounted to 0%. Also, the “Test F rating (% disease control)” value with Septoria nodorum (setting [7]) was found to be 0%. The “Test J rating (% disease control)” value in test [1] (setting [8]) is listed as 72%. Also, in test [2] (setting [9]), the “Test H rating (% disease control)” value is given as 9%. In addition, in test [3] (setting [10]), the “Test I rating (% disease control)” value is listed as 0%.

On to `COc1cc(F)c(Nc2c(-c3ccc(Cl)cc3Cl)c(C)nn2C)c(F)c1` [compound 62], for which, in the test with Botrytis cinerea (setting [4]), the “Test B rating (% disease control)” value turned out to be 99%. The “Test G rating (% disease control)” value in the test with Septoria tritici (setting [5]) is reported as 98%. Besides, the “Test C rating (% disease control)” value in the test on Alternaria solani (setting [6]) came out at 98%. In the test with Septoria nodorum (setting [7]), the “Test F rating (% disease control)” value is recorded as 84%. Moreover, the “Test J rating (% disease control)” value in test [1] (setting [8]) turned out to be 99%. Also, the “Test H rating (% disease control)” value in test [2] (setting [9]) turned out to be 98%. In test [3] (setting [10]), the “Test I rating (% disease control)” value is reported as 99%.

For `CCn1nc(C)c(-c2ccc(Cl)cc2)c1Nc1c(F)cccc1F` [compound 61], in the test with Botrytis cinerea (setting [4]), the “Test B rating (% disease control)” value was 97%. Further, the “Test G rating (% disease control)” value with Septoria tritici (setting [5]) was 99%. For the same compound, in the test with Alternaria solani (setting [6]), the “Test C rating (% disease control)” value came to 0%. Besides, in the test on Septoria nodorum (setting [7]), the “Test F rating (% disease control)” value is reported as 0%. The “Test J rating (% disease control)” value in test [1] (setting [8]) stood at 73%. Moreover, the “Test H rating (% disease control)” value in test [2] (setting [9]) was found to be 0%. In test [3] (setting [10]), the “Test I rating (% disease control)” value came out at 38%.

Turning to `Cc1nn(C)c(Nc2c(F)cccc2F)c1-c1ccc(Cl)cc1Cl` [compound 353], in the test on Botrytis cinerea (tomato Botrytis, 100 = 100% disease control, 0 = no disease control relative to controls), the “Test B disease control rating” value is 97%. In addition, the “Test G disease control rating” value in the test on Septoria tritici (wheat leaf blotch, sprayed the day before inoculation, 100 = 100% disease control, 0 = no disease control relative to controls) was 99%. Also, the “Test C disease control rating” value in the test with Alternaria solani (tomato early blight, 100 = 100% disease control, 0 = no disease control relative to controls) was 17%. Moreover, in the test with Septoria nodorum (Septoria glume blotch on wheat, 100 = 100% disease control, 0 = no disease control relative to controls), the “Test F disease control rating” value turned out to be 0%. Also, in test [1] (wheat powdery mildew, sprayed the day before inoculation, 100 = 100% disease control, 0 = no disease control relative to controls), the “Test J disease control rating” value is 99%. Also, in test [2] (wheat leaf rust, sprayed after inoculation, 100 = 100% disease control, 0 = no disease control relative to controls), the “Test H disease control rating” value is 3%. For the same compound, in test [3] (wheat leaf rust, sprayed the day before inoculation, 100 = 100% disease control, 0 = no disease control relative to controls), the “Test I disease control rating” value turned out to be 99%.

As for `Cc1nn(C)c(Oc2c(F)cc(C#N)cc2F)c1-c1cccc(Cl)c1Cl` [compound 273], the “Test B rating (% disease control)” value in the test on Botrytis cinerea (setting [11]) is 0%. The “Test G rating (% disease control)” value in the test on Septoria tritici (setting [12]) is recorded as 72%. Besides, in the test with Alternaria solani (setting [13]), the “Test C rating (% disease control)” value worked out at 0%. The “Test F rating (% disease control)” value in the test on Septoria nodorum (setting [14]) stood at 0%. Also, the “Test J rating (% disease control)” value in test [1] (setting [15]) stood at 43%. For the same compound, the “Test H rating (% disease control)” value in test [2] (setting [16]) worked out at 0%. Further, the “Test I rating (% disease control)” value in test [3] (setting [17]) stood at 27%.
